Experimental data as given in US20220274954A1, “SUBSTITUTED N-PHENYL-N-AMINOUARCILS AND SALTS THEREOF AND USE THEREOF AS HERBICIDAL AGENTS” (Bayer Aktiengesellschaft, priority 2019, published 2022).

Assays:
Type in all cases: in vivo
Oryza sativa = test: Post-emergence crop plant compatibility
Protocol: (§1) Seeds of monocotyledonous and dicotyledonous weeds and crop plants were placed in sandy loam in plastic or wood-fiber pots, covered with soil and cultivated in a greenhouse under controlled growth conditions. 2 to 3 weeks after sowing, the test plants were treated at the one-leaf stage. The compounds of the invention, formulated in the form of wettable powders (WP) or as emulsion concentrates (EC), were then sprayed onto the green parts of the plants as aqueous suspension or emulsion with addition of 0.5% additive at a water application rate of […] (converted). After the test plants had been kept in the greenhouse under optimum growth conditions for about 3 weeks, the activity of the preparations was rated visually in comparison to untreated controls. For example, 100% activity=the plants have died, 0% activity=like control plants.
(§2) Here, the observed effects on selected crop plants are stated in comparison to the untreated controls (values in %).

Triticum aestivum = test: Post-emergence crop plant compatibility
Protocol: as §1, §2

Viola tricolor = test: Post-emergence herbicidal action
Protocol: as §1, with “plants. Tables A1 to A14 below show the effects of selected compounds of the general formula (I) according to Tables I.1 to I.34 on various harmful plants and at an application rate corresponding to 20 g/ha and less, which were obtained by the experimental procedure mentioned above.” for “plants.”

Veronica persica = test: Post-emergence herbicidal action
Protocol: as §1, with “plants. Tables A1 to A14 below show the effects of selected compounds of the general formula (I) according to Tables I.1 to I.34 on various harmful plants and at an application rate corresponding to 20 g/ha and less, which were obtained by the experimental procedure mentioned above.” for “plants.”

Alopecurus myosuroides = test: Post-emergence herbicidal action
Protocol: as §1, with “plants. Tables A1 to A14 below show the effects of selected compounds of the general formula (I) according to Tables I.1 to I.34 on various harmful plants and at an application rate corresponding to 20 g/ha and less, which were obtained by the experimental procedure mentioned above.” for “plants.”

Matricaria inodora = test: Post-emergence herbicidal action
Protocol: as §1, with “plants. Tables A1 to A14 below show the effects of selected compounds of the general formula (I) according to Tables I.1 to I.34 on various harmful plants and at an application rate corresponding to 20 g/ha and less, which were obtained by the experimental procedure mentioned above.” for “plants.”

Echinochloa crus-galli = test: Post-emergence herbicidal action
Protocol: as §1, with “plants. Tables A1 to A14 below show the effects of selected compounds of the general formula (I) according to Tables I.1 to I.34 on various harmful plants and at an application rate corresponding to 20 g/ha and less, which were obtained by the experimental procedure mentioned above.” for “plants.”

Lolium rigidum = test: Post-emergence herbicidal action; settings: application rate 20 g/ha
Protocol: as §1, with “plants. Tables A1 to A14 below show the effects of selected compounds of the general formula (I) according to Tables I.1 to I.34 on various harmful plants and at an application rate corresponding to 20 g/ha and less, which were obtained by the experimental procedure mentioned above.” for “plants.”

Abutilon theophrasti = test: Post-emergence herbicidal action
Protocol: as §1, with “plants. Tables A1 to A14 below show the effects of selected compounds of the general formula (I) according to Tables I.1 to I.34 on various harmful plants and at an application rate corresponding to 20 g/ha and less, which were obtained by the experimental procedure mentioned above.” for “plants.”

Pharbitis purpurea = test: Post-emergence herbicidal action
Protocol: as §1, with “plants. Tables A1 to A14 below show the effects of selected compounds of the general formula (I) according to Tables I.1 to I.34 on various harmful plants and at an application rate corresponding to 20 g/ha and less, which were obtained by the experimental procedure mentioned above.” for “plants.”

Amaranthus retroflexus = test: Post-emergence herbicidal action
Protocol: as §1, with “plants. Tables A1 to A14 below show the effects of selected compounds of the general formula (I) according to Tables I.1 to I.34 on various harmful plants and at an application rate corresponding to 20 g/ha and less, which were obtained by the experimental procedure mentioned above.” for “plants.”

Zea mays = test: Post-emergence crop plant compatibility; settings: application rate 5 g/ha
Protocol: as §1, §2

Avena fatua = test: Post-emergence herbicidal action; settings: application rate 20 g/ha
Protocol: as §1, with “plants. Tables A1 to A14 below show the effects of selected compounds of the general formula (I) according to Tables I.1 to I.34 on various harmful plants and at an application rate corresponding to 20 g/ha and less, which were obtained by the experimental procedure mentioned above.” for “plants.”

Setaria viridis = test: Post-emergence herbicidal action; settings: 504 h, read-out: Setaria viridis (efficacy in %)
Protocol: as §1, with “plants. Tables A1 to A14 below show the effects of selected compounds of the general formula (I) according to Tables I.1 to I.34 on various harmful plants and at an application rate corresponding to 20 g/ha and less, which were obtained by the experimental procedure mentioned above.” for “plants.”

Digitaria sanguinalis = test: Post-emergence herbicidal action; settings: 504 h, read-out: Digitaria sanguinalis (efficacy in %)
Protocol: as §1, with “plants. Tables A1 to A14 below show the effects of selected compounds of the general formula (I) according to Tables I.1 to I.34 on various harmful plants and at an application rate corresponding to 20 g/ha and less, which were obtained by the experimental procedure mentioned above.” for “plants.”

Polygonum convolvulus = test: Post-emergence herbicidal action; settings: Fallopia convolvulus, 504 h, read-out: Polygonum convolvulus (efficacy in %)
Protocol: as §1, with “plants. Tables A1 to A14 below show the effects of selected compounds of the general formula (I) according to Tables I.1 to I.34 on various harmful plants and at an application rate corresponding to 20 g/ha and less, which were obtained by the experimental procedure mentioned above.” for “plants.”

## Nn1c(C(F)(F)F)cc(=O)n(-c2cc(Sc3cccnc3OCC(=O)O)c(Cl)cc2F)c1=O [I.1-481]
Oryza sativa; application rate 1.25 g/ha
  Oryza sativa (efficacy in %): 10%
Oryza sativa; application rate 5 g/ha
  Oryza sativa (efficacy in %): 20%
Triticum aestivum; application rate 1.25 g/ha
  Triticum aestivum (efficacy in %): 20%
Viola tricolor; application rate 5 g/ha
  Viola tricolor (efficacy in %): 100%
Viola tricolor; application rate 20 g/ha
  Viola tricolor (efficacy in %): 100%
Veronica persica; application rate 5 g/ha
  Veronica persica (efficacy in %): 100%
Veronica persica; application rate 20 g/ha
  Veronica persica (efficacy in %): 100%
Alopecurus myosuroides; application rate 5 g/ha
  Alopecurus myosuroides (efficacy in %): 100%
Alopecurus myosuroides; application rate 20 g/ha
  Alopecurus myosuroides (efficacy in %): 100%
Matricaria inodora; application rate 5 g/ha
  Matricaria inodora (efficacy in %): 90%
Matricaria inodora; application rate 20 g/ha
  Matricaria inodora (efficacy in %): 100%
Echinochloa crus-galli; application rate 5 g/ha
  Echinochloa crus-galli (efficacy in %): 90%
Echinochloa crus-galli; application rate 20 g/ha
  Echinochloa crus-galli (efficacy in %): 100%
Lolium rigidum
  Lolium rigidum (efficacy in %): 80%
Abutilon theophrasti; application rate 5 g/ha
  Abutilon theophrasti (efficacy in %): 100%
Abutilon theophrasti; application rate 20 g/ha
  Abutilon theophrasti (efficacy in %): 100%
Pharbitis purpurea; application rate 5 g/ha
  Pharbitis purpurea (efficacy in %): 80%
Pharbitis purpurea; application rate 20 g/ha
  Pharbitis purpurea (efficacy in %): 100%
Amaranthus retroflexus; application rate 5 g/ha
  Amaranthus retroflexus (efficacy in %): 100%
Amaranthus retroflexus; application rate 20 g/ha
  Amaranthus retroflexus (efficacy in %): 100%

## C=CCOC(=O)COc1ncccc1Sc1cc(-n2c(=O)cc(C(F)(F)F)n(N)c2=O)c(F)cc1Cl [I.1-471]
Oryza sativa; application rate 1.25 g/ha
  Oryza sativa (efficacy in %): 0%
Triticum aestivum; application rate 1.25 g/ha
  Triticum aestivum (efficacy in %): 10%
Triticum aestivum; application rate 5 g/ha
  Triticum aestivum (efficacy in %): 20%
Zea mays
  Zea mays (efficacy in %): 20%
Viola tricolor; application rate 5 g/ha
  Viola tricolor (efficacy in %): 100%
Viola tricolor; application rate 20 g/ha
  Viola tricolor (efficacy in %): 100%
Veronica persica; application rate 5 g/ha
  Veronica persica (efficacy in %): 100%
Veronica persica; application rate 20 g/ha
  Veronica persica (efficacy in %): 100%
Alopecurus myosuroides; application rate 5 g/ha
  Alopecurus myosuroides (efficacy in %): 80%
Alopecurus myosuroides; application rate 20 g/ha
  Alopecurus myosuroides (efficacy in %): 100%
Matricaria inodora; application rate 5 g/ha
  Matricaria inodora (efficacy in %): 100%
Matricaria inodora; application rate 20 g/ha
  Matricaria inodora (efficacy in %): 100%
Echinochloa crus-galli; application rate 5 g/ha
  Echinochloa crus-galli (efficacy in %): 90%
Echinochloa crus-galli; application rate 20 g/ha
  Echinochloa crus-galli (efficacy in %): 100%
Lolium rigidum
  Lolium rigidum (efficacy in %): 80%
Abutilon theophrasti; application rate 5 g/ha
  Abutilon theophrasti (efficacy in %): 100%
Abutilon theophrasti; application rate 20 g/ha
  Abutilon theophrasti (efficacy in %): 100%
Avena fatua
  Avena fatua (efficacy in %): 80%
Pharbitis purpurea; application rate 5 g/ha
  Pharbitis purpurea (efficacy in %): 100%
Pharbitis purpurea; application rate 20 g/ha
  Pharbitis purpurea (efficacy in %): 100%
Amaranthus retroflexus; application rate 5 g/ha
  Amaranthus retroflexus (efficacy in %): 100%
Amaranthus retroflexus; application rate 20 g/ha
  Amaranthus retroflexus (efficacy in %): 100%

## CCOCCOC(=O)COc1ncccc1Sc1cc(-n2c(=O)cc(C(F)(F)F)n(N)c2=O)c(F)cc1Cl [I.1-2, 2-Ethoxyethyl {[3-({5-[3-amino-2,6-dioxo-4-(trifluoromethyl)-3,6-dihydropyrimidin-1(2H)-yl]-2-chloro-4-fluorophenyl}sulfanyl)pyridin-2-yl]oxy}acetate]
Oryza sativa; application rate 1.25 g/ha
  Oryza sativa (efficacy in %): 0%
Oryza sativa; application rate 5 g/ha
  Oryza sativa (efficacy in %): 10%
Triticum aestivum; application rate 1.25 g/ha
  Triticum aestivum (efficacy in %): 0%
Viola tricolor; Viola tricolor, 504 h, application rate 5 g/ha, read-out: Viola tricolor (efficacy in %)
  pest or weed control at 5 g/ha: 100%
Viola tricolor; Viola tricolor, 504 h, application rate 20 g/ha, read-out: Viola tricolor (efficacy in %)
  pest or weed control at 20 g/ha: 100%
Veronica persica; Veronica persica, 504 h, application rate 5 g/ha, read-out: Veronica persica (efficacy in %)
  pest or weed control at 5 g/ha: 100%
Veronica persica; Veronica persica, 504 h, application rate 20 g/ha, read-out: Veronica persica (efficacy in %)
  pest or weed control at 20 g/ha: 100%
Alopecurus myosuroides; application rate 20 g/ha
  Alopecurus myosuroides (efficacy in %): 100%
Matricaria inodora; Tripleurospermum inodorum, 504 h, application rate 5 g/ha, read-out: Matricaria inodora (efficacy in %)
  pest or weed control at 5 g/ha: 100%
Matricaria inodora; Tripleurospermum inodorum, 504 h, application rate 20 g/ha, read-out: Matricaria inodora (efficacy in %)
  pest or weed control at 20 g/ha: 100%
Echinochloa crus-galli; Echinochloa crus-galli, 504 h, application rate 5 g/ha, read-out: Echinochloa crus-galli (efficacy in %)
  pest or weed control at 5 g/ha: 90%
Echinochloa crus-galli; Echinochloa crus-galli, 504 h, application rate 20 g/ha, read-out: Echinochloa crus-galli (efficacy in %)
  pest or weed control at 20 g/ha: 100%
Lolium rigidum
  Lolium rigidum (efficacy in %): 80%
Setaria viridis; application rate 5 g/ha
  pest or weed control at 5 g/ha: 100%
Setaria viridis; application rate 20 g/ha
  pest or weed control at 20 g/ha: 100%
Abutilon theophrasti; Abutilon theophrasti, 504 h, application rate 5 g/ha, read-out: Abutilon theophrasti (efficacy in %)
  pest or weed control at 5 g/ha: 100%
Abutilon theophrasti; Abutilon theophrasti, 504 h, application rate 20 g/ha, read-out: Abutilon theophrasti (efficacy in %)
  pest or weed control at 20 g/ha: 100%
Avena fatua
  Avena fatua (efficacy in %): 80%
Digitaria sanguinalis; application rate 5 g/ha
  pest or weed control at 5 g/ha: 100%
Digitaria sanguinalis; application rate 20 g/ha
  pest or weed control at 20 g/ha: 100%
Polygonum convolvulus; application rate 5 g/ha
  pest or weed control at 5 g/ha: 100%
Polygonum convolvulus; application rate 20 g/ha
  pest or weed control at 20 g/ha: 100%
Pharbitis purpurea; Ipomoea purpurea, 504 h, application rate 5 g/ha, read-out: Pharbitis purpurea (efficacy in %)
  pest or weed control at 5 g/ha: 100%
Pharbitis purpurea; Ipomoea purpurea, 504 h, application rate 20 g/ha, read-out: Pharbitis purpurea (efficacy in %)
  pest or weed control at 20 g/ha: 100%
Amaranthus retroflexus; Amaranthus retroflexus, 504 h, application rate 5 g/ha, read-out: Amaranthus retroflexus (efficacy in %)
  pest or weed control at 5 g/ha: 100%
Amaranthus retroflexus; Amaranthus retroflexus, 504 h, application rate 20 g/ha, read-out: Amaranthus retroflexus (efficacy in %)
  pest or weed control at 20 g/ha: 100%
